Read-outs that look alike come from different tables or passages of the source. Blank lines part the entries; values can stand above or below the molecule they belong to.
Assays:
[1] = Predicted shelf-life (t90) of meropenem from degradation kinetics; format: physicochemical
Protocol: The stability and degradation kinetics of meropenem have been studied. Meropenem is predicted to have a shelf-life (t90) of about 0.5 day at 0° C. Extrapolated to −25° C., the predicted shelf-life is less than one month. Meropenem also polymerizes at higher drug concentration by a second-order mechanism. If one requires a meropenem formulation that is ready-to-use, there is value in being able to stabilize these compounds in frozen aqueous media.

[2] = 10 mL concentrate in 250 mL infusion diluent, cited from earlier work
[3] = stored at or below −20° C.; cited from earlier work

Predicted shelf-life (t90) ([1]; at 0° C.): about 0.5 day | Predicted shelf-life ([1]; extrapolated to −25° C.): less than one
Compound: C[C@@H](O)[C@H]1C(=O)N2C(C(=O)O)=C(S[C@@H]3CN[C@H](C(=O)N(C)C)C3)[C@H](C)[C@H]12 [Meropenem]

Compound: CCC(C)CC(C)CCCCCCCCC(=O)N[C@H]1C[C@@H](O)[C@@H](NCCN)NC(=O)[C@@H]2[C@@H](O)CCN2C(=O)[C@H]([C@H](O)CCN)NC(=O)[C@H]([C@H](O)[C@@H](O)c2ccc(O)cc2)NC(=O)[C@@H]2C[C@@H](O)CN2C(=O)[C@H]([C@@H](C)O)NC1=O (some centres unmarked) [Caspofungin, Caspofungin acetate]
Time within which the infusion solution must be used ([2]; stored at ≦25° C.): ≤ 24 h | Time within which the infusion solution must be used ([2]; stored refrigerated at 2 to 8° C.): ≤ 48 h

Compound: CO/N=C(\C(=O)N[C@@H]1C(=O)N2C(C(=O)O)=C(CSc3nc(=O)c(=O)[nH]n3C)CS[C@H]12)c1csc(N)n1 [ceftriaxone sodium]
Time for which the frozen agent is stable [3]: at least 18 months
